# In US20050080247A1, “Leinamycin biosynthesis gene cluster and its components and their uses” (priority 2001, published 2005):
# Like-named read-outs stand apart in the source and are kept apart here.
# Experiments:
# [1] = cited from earlier work; for t1/2: aqueous condition
# [2] = test system: murine tumor models (HeLa S3, sarcoma180, B-16, Colon 26, leukemia P388); conditions: cited from earlier work
# [3] = test system: Gram-positive and Gram-negative bacteria; conditions: cited from earlier work
# fungi = conditions: cited from earlier work
# DNA = conditions: in the presence of thiol agents as cofactors; cited from earlier work
# S. atroolivaceus = test: Antibiotic sensitivity (growth inhibition) of S. atroolivaceus; assay type: cell-based, Streptomyces atroolivaceus; conditions: for complete inhibition of growth: concentration giving complete inhibition of growth of S. atroolivaceus; for sensitivity of S. atroolivaceus: result in words
# Method: S. atroolivaceus grows very well at 30° C.; it doesn't grow at temperature beyond 35° C. […] Thus, E. coli-Streptornyces shuttle vectors pOJ260 (suicide vector, Am^R) and pKC1139 (self-replicating vector, Am^R) were chosen to make the gene-disruption constructs pYC12 and pYC20, respectively. The concentration of antibiotic (Am) for selection of transformants/exconjugates is 50 μg/ml.
Structure (SMILES),t1/2 ([1]; pH 6) [h],t1/2 ([1]; pH 7) [h],t1/2 ([1]; pH 8) [h],"t1/2 in the presence of a thiol ([1]; in the presence of a thiol, compared with aqueous condition alone)","activity against drug-resistant tumors ([2]; murine models inoculated with tumors resistant to cisplatin, doxorubicin, mitomycin or cyclophosphamide)","antitumor activity ([2]; murine tumor models in vivo, including HeLa S3, sarcoma180, B-16, Colon 26, leukemia P388)",antimicrobial activity [3],antimicrobial activity (fungi),DNA cleavage (DNA),complete inhibition of growth (S. atroolivaceus) [µg/mL],sensitivity of S. atroolivaceus (S. atroolivaceus)
"C/C1=C\[C@@H](O)C(=O)/C=C/C=C\c2csc(n2)[C@@H](C)NC(=O)C[C@@]2(CC1)[S+]([O-])SC(=O)[C@]2(C)O (stereo partly shown) [Lnm, Leinamycin]",> 20,8,< 1,even shorter t1/2,active,potent antitumor activity,broad spectrum of antimicrobial activity,not against fungi,single-strand scission of DNA,,
CN[C@@H]1[C@@H](O[C@H]2O[C@H](CO)[C@@H](N)[C@H](O)[C@H]2O)OC2C[C@@H](N)[C@@H](O[C@H]3[C@H](O)[C@@H](O)[C@H](N)C[C@@H]3N)OC2[C@@H]1O (stereo partly shown) [apramycin],,,,,,,,,,10,sensitive
C=C(NC(=O)C(=C)NC(=O)c1csc(C2=N[C@@H]3c4csc(n4)[C@H]4NC(=O)c5csc(n5)[C@H]([C@](C)(O)[C@@H](C)O)NC(=O)[C@H]5CSC(=N5)/C(=C/C)NC(=O)[C@H]([C@@H](C)O)NC(=O)c5csc(n5)[C@]3(CC2)NC(=O)[C@H](C)NC(=O)C(=C)NC(=O)[C@H](C)NC(=O)[C@H]([C@@H](C)CC)N[C@@H]2C=Cc3c([C@H](C)O)cc(nc3[C@H]2O)C(=O)O[C@@H]4C)n1)C(N)=O [thiostrepton],,,,,,,,,,3,sensitive
